These results are taken from ChEMBL document CHEMBL1135015, “Silanediol-based inhibitor of thermolysin” (Bioorg Med Chem Lett, 2002).

pKi: −log10 of the molar value.

Broadly, the pKi is the negative decadic logarithm of the Ki, by convention in mol/L. A low value points to a high Ki.

For this test, the target named is T1, Thermolysin (Bacillus thermoproteolyticus, UniProt P00800).
T1 sequence (P00800 whole entry): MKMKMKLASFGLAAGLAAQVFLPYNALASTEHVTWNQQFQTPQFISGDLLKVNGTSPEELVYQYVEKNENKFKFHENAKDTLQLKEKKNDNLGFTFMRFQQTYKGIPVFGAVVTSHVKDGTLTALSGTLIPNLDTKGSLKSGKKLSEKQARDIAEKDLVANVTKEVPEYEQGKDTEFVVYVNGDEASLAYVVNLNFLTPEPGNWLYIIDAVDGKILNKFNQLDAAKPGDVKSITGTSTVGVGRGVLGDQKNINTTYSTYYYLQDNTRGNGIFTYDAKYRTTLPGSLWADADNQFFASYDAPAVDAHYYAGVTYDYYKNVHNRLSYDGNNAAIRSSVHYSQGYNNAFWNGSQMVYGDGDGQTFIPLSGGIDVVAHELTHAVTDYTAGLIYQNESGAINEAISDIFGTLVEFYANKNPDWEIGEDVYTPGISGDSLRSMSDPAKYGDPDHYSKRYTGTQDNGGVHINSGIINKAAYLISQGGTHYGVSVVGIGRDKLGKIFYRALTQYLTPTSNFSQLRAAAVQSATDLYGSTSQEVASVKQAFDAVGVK
The test can be described thus: Competitive inhibition of thermolysin evaluated using the substrate FAGLA (Sigma); Competitive binding observed.
For `CC(C)C[C@H](C[Si](O)(O)CNC(=O)CCc1ccccc1)C(=O)N[C@@H](CC(C)C)C(=O)O`, the pKi was 7.39.

For the compound `CC(C)C[C@@H](CO)C[Si](CN)(c1ccccc1)c1ccccc1`, the pKi was 7.39.

In turn, `CC(C)C[C@H](CP(=O)(O)CNC(=O)OCc1ccccc1)C(=O)N[C@@H](CC(C)C)C(=O)O` showed a pKi of 7.96. Against the preceding compound, the pKi is 0.57 log units higher.
